Measurements from ChEMBL document CHEMBL1201862, “PubChem BioAssay data set” (2004).
Calls of active or inactive are those of the source.

Tests used:
[1] = system: BJ; experiment: cytotoxicity toward BJ-TERT fibroblasts, dose response, cell-based, RAS-independent, luminescence (AID 1933); type: functional; settings: Homo sapiens
[2] = cytotoxicity toward DRD oncogenic fibroblasts, dose response, cell-based, non-viral oncogenic, luminescence (AID 1934); type: functional; settings: Homo sapiens
[3] = system: BJ; experiment: cells; type: functional, cell-based; settings: Homo sapiens
[4] = growth suppression of beta-catenin-knockout colon cells, dose response, cell-based, HCT116, human colon tumor (AID 1045); type: functional;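 also: HCT116 colon tumor cells with beta catenin knocked out; cells exposed to compound for 60 hours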
[5] = system: BJ; experiment: cytotoxicity toward Ras-transformed BJeLR fibroblasts, dose response, cell-based, alamar blue fluorescence, cherrypicked samples (AID 2631); type: functional; settings: Homo sapiens;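 also: confirmatory dose-response assay in RAS-dependent BJ fibroblasts engineered with TERT, LT and ST, with cytotoxicity read by fluorescence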
[6] = system: BJ; experiment: cytotoxicity toward BJ-TERT-LT-ST fibroblasts, dose response, cell-based, RAS-independent, luminescence (AID 1935); type: functional; settings: Homo sapiens;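 also: BJ fibroblasts immortalized with TERT plus LT and ST oncogenes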
[7] = growth suppression of PTEN-null colon cells, dose response, cell-based, HCT116 PTEN knockout (AID 1047); type: functional;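 also: HCT116 colon tumor cells with PTEN knocked out; cells exposed to compound for 60 hours before readout; potency for loss of cell viability measured by luminescence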
[8] = molecular target: Induced myeloid leukemia cell differentiation protein Mcl-1 (Homo sapiens, UniProt Q07820); type: functional
[9] = THP-1 cell cytotoxicity, dose response, cytotoxicity control for Vif-APOBEC3G degradation inhibitor project, THP-1 cells (AID 1117359); type: functional; settings: Human immunodeficiency virus 1, THP-1
[10] = molecular target: T1, Long-chain-fatty-acid--AMP ligase FadD28 (Mycobacterium tuberculosis, UniProt P9WQ59); experiment: Fluorescence polarization aasay to screen for inhibitors that compete for the binding of FadD28 to a bisubstrate Measured in Biochemical System Using Plate Reader - 2147-01_Inhibitor_Dose_CherryPick_Activity.; type: functional, Mycobacterium tuberculosis H37Rv
T1 sequence (P9WQ59 whole entry): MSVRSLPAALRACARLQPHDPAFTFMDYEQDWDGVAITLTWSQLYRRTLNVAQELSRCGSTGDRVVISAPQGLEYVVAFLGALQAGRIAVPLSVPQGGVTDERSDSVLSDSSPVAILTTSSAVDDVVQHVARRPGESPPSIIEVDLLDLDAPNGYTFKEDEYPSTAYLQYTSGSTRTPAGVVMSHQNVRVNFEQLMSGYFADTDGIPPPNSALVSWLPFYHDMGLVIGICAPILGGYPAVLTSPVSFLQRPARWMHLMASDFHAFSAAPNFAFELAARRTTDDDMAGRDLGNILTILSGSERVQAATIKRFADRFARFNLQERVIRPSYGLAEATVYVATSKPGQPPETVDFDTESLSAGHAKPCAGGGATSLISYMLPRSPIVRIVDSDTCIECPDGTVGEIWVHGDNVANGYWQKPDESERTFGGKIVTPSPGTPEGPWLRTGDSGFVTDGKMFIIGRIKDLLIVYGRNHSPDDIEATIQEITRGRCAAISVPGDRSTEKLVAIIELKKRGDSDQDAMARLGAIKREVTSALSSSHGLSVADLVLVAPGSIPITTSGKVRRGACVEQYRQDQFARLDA

[11] = Luminescence Cell-Based Dose Retest to Confirm Inhibitors of Cancer Stem Cells. [Related pubchem assays (depositor defined):AID2717, AID2721]; type: functional; settings: Homo sapiens
[12] = molecular target: T2, Protein RecA (Mycobacterium tuberculosis, UniProt P9WHJ3); experiment: Fluorescence Cell-Free Homogeneous Dose Retest to Identify Inhibitors of RecA-Intein Splicing Activity. [Related pubchem assays (depositor defined):AID2097, AID2223, AID489010, AID492950]; type: functional
T2 sequence (P9WHJ3 whole entry): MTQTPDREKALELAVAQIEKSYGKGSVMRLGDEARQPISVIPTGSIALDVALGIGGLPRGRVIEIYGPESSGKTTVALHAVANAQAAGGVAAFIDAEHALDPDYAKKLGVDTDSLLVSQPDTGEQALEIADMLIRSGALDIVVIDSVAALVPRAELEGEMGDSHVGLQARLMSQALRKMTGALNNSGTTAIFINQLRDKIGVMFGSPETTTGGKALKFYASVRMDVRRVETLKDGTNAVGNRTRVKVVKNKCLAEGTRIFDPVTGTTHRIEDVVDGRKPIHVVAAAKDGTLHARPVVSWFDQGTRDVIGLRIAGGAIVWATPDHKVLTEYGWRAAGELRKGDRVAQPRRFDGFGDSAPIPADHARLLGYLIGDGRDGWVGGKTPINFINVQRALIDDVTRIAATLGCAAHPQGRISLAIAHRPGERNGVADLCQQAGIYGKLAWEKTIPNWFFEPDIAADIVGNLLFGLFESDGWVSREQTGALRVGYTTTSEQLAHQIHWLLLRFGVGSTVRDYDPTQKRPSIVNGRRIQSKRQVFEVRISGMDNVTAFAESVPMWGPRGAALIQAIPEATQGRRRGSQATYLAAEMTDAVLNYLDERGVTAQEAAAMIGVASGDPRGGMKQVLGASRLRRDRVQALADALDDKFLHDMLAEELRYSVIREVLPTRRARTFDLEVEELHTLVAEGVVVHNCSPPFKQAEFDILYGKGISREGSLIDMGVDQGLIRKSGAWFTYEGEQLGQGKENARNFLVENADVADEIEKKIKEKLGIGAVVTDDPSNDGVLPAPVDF

[13] = microbe, parasite or virus in culture; type: functional; settings: Mycobacterium tuberculosis
[14] = molecular target: T3, Replicative DNA helicase DnaB (Mycobacterium tuberculosis, UniProt P9WMR3); experiment: DnaB intein splicing inhibitors, dose response, biochemical, cell-free fluorescence (AID 449749); type: functional
T3 sequence (P9WMR3 whole entry): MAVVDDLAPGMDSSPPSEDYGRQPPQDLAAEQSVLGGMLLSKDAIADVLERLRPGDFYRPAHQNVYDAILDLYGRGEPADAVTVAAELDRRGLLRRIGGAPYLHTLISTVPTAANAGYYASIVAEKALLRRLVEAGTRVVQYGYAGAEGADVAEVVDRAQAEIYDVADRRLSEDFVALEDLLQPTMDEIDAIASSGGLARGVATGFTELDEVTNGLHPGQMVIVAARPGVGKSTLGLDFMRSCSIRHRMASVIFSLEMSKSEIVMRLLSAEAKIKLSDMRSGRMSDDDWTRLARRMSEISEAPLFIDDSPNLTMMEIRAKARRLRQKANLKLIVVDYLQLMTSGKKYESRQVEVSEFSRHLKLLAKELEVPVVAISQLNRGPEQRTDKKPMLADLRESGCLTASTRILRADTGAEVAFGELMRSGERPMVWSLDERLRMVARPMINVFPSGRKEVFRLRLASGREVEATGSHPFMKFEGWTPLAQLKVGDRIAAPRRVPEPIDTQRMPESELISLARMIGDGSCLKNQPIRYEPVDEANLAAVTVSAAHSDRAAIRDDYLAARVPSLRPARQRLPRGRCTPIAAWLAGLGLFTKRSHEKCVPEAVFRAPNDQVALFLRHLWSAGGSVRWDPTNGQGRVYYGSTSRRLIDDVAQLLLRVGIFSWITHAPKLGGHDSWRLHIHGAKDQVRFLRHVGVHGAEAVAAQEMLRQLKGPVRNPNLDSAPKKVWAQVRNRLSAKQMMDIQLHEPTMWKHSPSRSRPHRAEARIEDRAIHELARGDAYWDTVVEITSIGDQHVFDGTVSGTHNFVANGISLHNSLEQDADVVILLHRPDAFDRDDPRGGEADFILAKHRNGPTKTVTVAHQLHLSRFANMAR

[15] = molecular target: T4, Corticotropin-releasing factor receptor 2/Corticotropin-releasing factor-binding protein (Homo sapiens, UniProt P24387+Q13324); experiment: Dose Response confirmation of uHTS hits for small molecule antagonists of the CRF-binding protein and CRF-R2 receptor complex.; type: functional; settings: read-out: IC50_Mean
T4 sequence (Q13324 whole entry): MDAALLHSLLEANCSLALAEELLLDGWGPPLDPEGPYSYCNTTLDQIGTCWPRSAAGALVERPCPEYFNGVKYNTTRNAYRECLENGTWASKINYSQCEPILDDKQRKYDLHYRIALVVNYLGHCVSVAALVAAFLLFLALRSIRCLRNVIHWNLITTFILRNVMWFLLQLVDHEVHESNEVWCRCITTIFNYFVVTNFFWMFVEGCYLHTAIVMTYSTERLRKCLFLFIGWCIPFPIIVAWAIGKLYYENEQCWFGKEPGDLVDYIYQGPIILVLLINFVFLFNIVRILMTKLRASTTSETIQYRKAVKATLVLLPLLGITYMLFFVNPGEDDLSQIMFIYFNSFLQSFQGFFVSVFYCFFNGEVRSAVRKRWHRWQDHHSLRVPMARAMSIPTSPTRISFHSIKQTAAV
T4 sequence (P24387 whole entry): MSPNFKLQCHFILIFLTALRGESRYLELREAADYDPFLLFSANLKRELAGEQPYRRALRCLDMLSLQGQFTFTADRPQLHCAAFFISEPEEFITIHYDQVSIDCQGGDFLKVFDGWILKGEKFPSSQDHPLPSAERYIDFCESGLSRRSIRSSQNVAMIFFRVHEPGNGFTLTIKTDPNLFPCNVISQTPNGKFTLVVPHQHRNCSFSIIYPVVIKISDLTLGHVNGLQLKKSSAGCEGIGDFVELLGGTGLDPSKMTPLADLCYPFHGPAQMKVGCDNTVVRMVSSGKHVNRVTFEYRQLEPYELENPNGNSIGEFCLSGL

[16] = CRF-BP/CRF-R2 complex antagonists, dose response, cell-based, uHTS hits, 384-well (AID 651639); type: functional, Homo sapiens; settings: read-out: IC50_Mean
[17] = molecular target: T4, Corticotropin-releasing factor receptor 2/Corticotropin-releasing factor-binding protein; experiment: activators of CRF receptor 2 with binding protein – uHTS hits, confirmation (AID 602473); type: functional; settings: read-out: EC50_Mean
[18] = molecular target: Cytochrome P450 2C9 (Homo sapiens, UniProt P11712)
[19] = molecular target: Cytochrome P450 2D6 (Homo sapiens, UniProt P10635);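 also: CYP2D6 member of a cytochrome P450 panel assay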
[20] = molecular target: T5, Adenosylmethionine-8-amino-7-oxononanoate aminotransferase (Mycobacterium tuberculosis, UniProt P9WQ81); experiment: Mycobacterium tuberculosis BioA enzyme inhibitor Measured in Biochemical System Using Plate Reader - 2163-02_Inhibitor_Dose_CherryPick_Activity.; type: functional, Mycobacterium tuberculosis UT205
T5 sequence (P9WQ81 whole entry): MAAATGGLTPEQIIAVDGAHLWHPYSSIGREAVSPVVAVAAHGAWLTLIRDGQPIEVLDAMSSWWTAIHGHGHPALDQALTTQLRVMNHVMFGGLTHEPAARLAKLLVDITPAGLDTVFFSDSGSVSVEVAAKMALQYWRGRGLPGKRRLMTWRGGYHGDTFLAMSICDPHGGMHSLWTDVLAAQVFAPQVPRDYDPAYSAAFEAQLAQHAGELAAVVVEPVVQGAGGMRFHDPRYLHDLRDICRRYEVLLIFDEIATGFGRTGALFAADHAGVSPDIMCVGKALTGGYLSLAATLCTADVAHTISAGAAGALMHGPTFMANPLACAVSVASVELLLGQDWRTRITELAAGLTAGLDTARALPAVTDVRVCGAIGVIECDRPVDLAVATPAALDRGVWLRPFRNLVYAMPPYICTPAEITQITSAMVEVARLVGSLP

[21] = molecular target: FAD-linked sulfhydryl oxidase ALR (Homo sapiens, UniProt P55789); experiment: inhibitors of human ALR sulfhydryl oxidase, dose response, biochemical, H2O2 detection, luminescence, cherry-pick (AID 493248)
Chain of FAD-linked sulfhydryl oxidase ALR (P55789 whole entry): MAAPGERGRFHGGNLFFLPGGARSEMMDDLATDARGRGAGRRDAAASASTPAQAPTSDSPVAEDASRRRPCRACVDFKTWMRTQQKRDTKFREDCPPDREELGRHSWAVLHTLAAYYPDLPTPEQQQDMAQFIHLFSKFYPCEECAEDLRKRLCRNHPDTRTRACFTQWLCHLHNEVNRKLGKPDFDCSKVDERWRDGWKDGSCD

Chain of Cytochrome P450 2D6 (P10635 whole entry): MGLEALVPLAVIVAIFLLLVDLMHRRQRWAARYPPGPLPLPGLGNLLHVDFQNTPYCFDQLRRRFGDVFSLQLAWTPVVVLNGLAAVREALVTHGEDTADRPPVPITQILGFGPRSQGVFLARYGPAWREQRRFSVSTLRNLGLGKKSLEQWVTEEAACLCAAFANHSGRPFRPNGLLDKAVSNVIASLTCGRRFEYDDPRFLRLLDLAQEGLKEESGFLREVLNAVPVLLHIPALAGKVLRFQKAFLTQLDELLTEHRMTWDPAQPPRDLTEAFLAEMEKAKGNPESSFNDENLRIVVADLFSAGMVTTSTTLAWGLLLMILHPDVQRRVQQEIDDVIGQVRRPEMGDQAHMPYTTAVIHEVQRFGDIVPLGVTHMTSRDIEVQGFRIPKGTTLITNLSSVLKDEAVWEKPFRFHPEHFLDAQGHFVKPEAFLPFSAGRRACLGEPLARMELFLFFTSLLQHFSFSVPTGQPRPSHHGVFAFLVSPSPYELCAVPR
Chain of Induced myeloid leukemia cell differentiation protein Mcl-1 (Q07820 whole entry): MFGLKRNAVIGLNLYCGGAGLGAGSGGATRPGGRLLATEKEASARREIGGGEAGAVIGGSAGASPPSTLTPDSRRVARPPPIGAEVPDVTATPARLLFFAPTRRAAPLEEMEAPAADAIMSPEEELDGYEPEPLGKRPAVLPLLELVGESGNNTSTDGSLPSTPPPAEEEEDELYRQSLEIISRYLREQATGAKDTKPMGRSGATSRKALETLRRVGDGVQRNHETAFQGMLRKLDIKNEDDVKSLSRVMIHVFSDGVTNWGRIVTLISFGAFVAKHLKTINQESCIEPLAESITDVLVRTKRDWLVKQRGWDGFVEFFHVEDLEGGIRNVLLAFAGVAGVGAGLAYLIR
Chain of Cytochrome P450 2C9 (P11712 whole entry): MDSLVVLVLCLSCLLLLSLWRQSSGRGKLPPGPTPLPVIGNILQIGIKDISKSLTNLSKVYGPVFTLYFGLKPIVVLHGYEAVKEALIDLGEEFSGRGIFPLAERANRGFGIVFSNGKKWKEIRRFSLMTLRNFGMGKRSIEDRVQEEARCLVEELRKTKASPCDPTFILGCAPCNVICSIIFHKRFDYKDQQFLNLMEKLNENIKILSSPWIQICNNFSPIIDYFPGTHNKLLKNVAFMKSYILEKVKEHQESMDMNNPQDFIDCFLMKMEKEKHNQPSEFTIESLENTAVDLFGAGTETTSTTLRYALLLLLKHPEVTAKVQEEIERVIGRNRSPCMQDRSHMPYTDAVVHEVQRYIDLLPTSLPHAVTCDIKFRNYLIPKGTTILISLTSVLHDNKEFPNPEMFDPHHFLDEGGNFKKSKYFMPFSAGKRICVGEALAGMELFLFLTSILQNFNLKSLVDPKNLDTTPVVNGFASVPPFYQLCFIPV

CCOc1ccccc1Nc1nc(-c2sc(NC(=O)c3ccc([N+](=O)[O-])cc3)nc2C)cs1
EC50 [1]: 7.64 µM (active)
EC50 [2]: 7.92 µM (active)
EC50 [3]: 12.7 µM (active)
EC50 [4]: 7.38 µM (active)
EC50 [5]: > 133 µM (inactive)
EC50 [6]: > 150 µM (inconclusive)
EC50 [7]: 9.09 µM (active)
IC50 [8]: 13.4 µM (active)

COc1ccc(C)cc1Nc1c2c(nc3ccccc13)CCC2
EC50 [1]: 3.98 µM (inconclusive)
EC50 [2]: 7.71 µM (inconclusive)
EC50 [3]: 15.1 µM (inconclusive)
CC50 [9]: 0.62 µM (active)
EC50 [5]: 0.174 µM (active)
EC50 [6]: 1 µM (inconclusive)

CC1=NN(c2nc(-c3ccc(F)cc3)cs2)C(=O)C1
AC50 [10]: 32 µM (inactive)
AC50 [11]: 7.23 µM (active)

CCc1nnc(NS(=O)(=O)c2ccc(NC(=O)Nc3ccc(OC)cc3)cc2)s1
AC50 [10]: 73.5 µM (active)

Cc1ccc(C2CC(c3cccs3)=NN2C(=O)CCl)cc1 (stereo not given)
EC50 [12]: 0.943 µM (active)
EC50 [1]: 0.911 µM (active)
CC50 [13]: 2.24 µM (active)
EC50 [2]: 5.15 µM (inconclusive)
EC50 [3]: 5.54 µM (active)
AC50 [14]: 1.23 µM (active)
EC50 [5]: 2.87 µM (active)
EC50 [6]: 6 µM (active)

Cc1nc(Sc2ccccc2)c(C#N)cc1-c1ccccc1
IC50 [15]: < 0.368 µM (active)
IC50 [16]: > 20 µM (inactive)
EC50 [17]: > 53 µM (inactive)

N#Cc1cccc(C(c2nnnn2C2CCCC2)N2CCCCCC2)c1 (stereo not given)
AC50 [18]: 35.5 µM (inconclusive)
IC50 [15]: 20.7 µM (active)
IC50 [16]: > 20 µM (inactive)
AC50 [19]: 11.2 µM (inconclusive)
EC50 [17]: > 53 µM (inactive)

CCC(c1nnnn1C1CCCC1)N1CCN(Cc2ccccc2)CC1 (stereo not given)
IC50 [15]: < 0.368 µM (active)
IC50 [16]: > 20 µM (inactive)
EC50 [17]: > 53 µM (inactive)

Cc1cc(C(=O)CSc2nncs2)c(C)n1-c1ccc2c(c1)OCO2
AC50 [20]: 1.67 µM (active)

COc1ccc(NC2c3ccccc3C(=O)N2c2cccnc2)cc1Cl (stereo not given)
AC50 [21]: 4.34 µM (active)
AC50 [20]: 4.04 µM (active)

COC(=O)c1cc(OC)c(OC)cc1NC(=O)c1c(-c2ccccc2)noc1C
IC50 [15]: 16.2 µM (active)
IC50 [16]: 1.87 µM (active)
EC50 [17]: > 53 µM (inactive)

O=C(COC(=O)c1ccc(O)cc1O)Nc1cccc2ccccc12
AC50 [10]: > 100 µM (inactive)

CC(=O)N1CC[C@@H]2[C@@H](CO)N(C)c3ccc(-c4cccc(F)c4)cc3[C@@H]21
AC50 [20]: 0.832 µM (active)

COc1cc(C(=O)Nc2cccnc2)cc(OC)c1OC
AC50 [20]: 2.14 µM (active)
